pKd, pKi: −log10 of the molar value. Read-outs that look alike come from different tables or passages of the source.
How the values were obtained:
NT5DC1 (IPI00177965) = molecular target: T1, NT5DC1 (IPI00177965) (Homo sapiens, UniProt Q5TFE4); assay: binding to VI16742 beads (HeLa lysate, SILAC MS)
T1 construct: endogenous in cells; host or cells: HeLa S3 cell lysate
T1 sequence (Q5TFE4 1-455): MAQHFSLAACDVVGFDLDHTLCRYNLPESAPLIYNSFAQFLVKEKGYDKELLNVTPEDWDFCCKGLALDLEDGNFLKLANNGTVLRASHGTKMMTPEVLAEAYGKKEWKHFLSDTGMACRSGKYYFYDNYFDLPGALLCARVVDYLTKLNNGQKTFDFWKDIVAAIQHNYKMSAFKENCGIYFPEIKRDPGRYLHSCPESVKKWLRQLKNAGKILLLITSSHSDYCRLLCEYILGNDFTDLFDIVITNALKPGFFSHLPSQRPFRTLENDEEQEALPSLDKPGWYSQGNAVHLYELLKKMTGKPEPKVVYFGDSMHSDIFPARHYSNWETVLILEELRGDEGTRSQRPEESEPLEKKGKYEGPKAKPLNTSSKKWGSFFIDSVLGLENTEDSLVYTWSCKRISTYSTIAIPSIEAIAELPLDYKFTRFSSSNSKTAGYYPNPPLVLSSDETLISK

EphA2 = EphA2 (Homo sapiens, UniProt P29317); assay: binding to immobilized V16742 (IVA1/IVA2, HeLa lysate, MS)
EphB2 = molecular target: T2, EphB2 (Homo sapiens, UniProt P29323); assay: as above
T2 sequence (P29323 19-1055): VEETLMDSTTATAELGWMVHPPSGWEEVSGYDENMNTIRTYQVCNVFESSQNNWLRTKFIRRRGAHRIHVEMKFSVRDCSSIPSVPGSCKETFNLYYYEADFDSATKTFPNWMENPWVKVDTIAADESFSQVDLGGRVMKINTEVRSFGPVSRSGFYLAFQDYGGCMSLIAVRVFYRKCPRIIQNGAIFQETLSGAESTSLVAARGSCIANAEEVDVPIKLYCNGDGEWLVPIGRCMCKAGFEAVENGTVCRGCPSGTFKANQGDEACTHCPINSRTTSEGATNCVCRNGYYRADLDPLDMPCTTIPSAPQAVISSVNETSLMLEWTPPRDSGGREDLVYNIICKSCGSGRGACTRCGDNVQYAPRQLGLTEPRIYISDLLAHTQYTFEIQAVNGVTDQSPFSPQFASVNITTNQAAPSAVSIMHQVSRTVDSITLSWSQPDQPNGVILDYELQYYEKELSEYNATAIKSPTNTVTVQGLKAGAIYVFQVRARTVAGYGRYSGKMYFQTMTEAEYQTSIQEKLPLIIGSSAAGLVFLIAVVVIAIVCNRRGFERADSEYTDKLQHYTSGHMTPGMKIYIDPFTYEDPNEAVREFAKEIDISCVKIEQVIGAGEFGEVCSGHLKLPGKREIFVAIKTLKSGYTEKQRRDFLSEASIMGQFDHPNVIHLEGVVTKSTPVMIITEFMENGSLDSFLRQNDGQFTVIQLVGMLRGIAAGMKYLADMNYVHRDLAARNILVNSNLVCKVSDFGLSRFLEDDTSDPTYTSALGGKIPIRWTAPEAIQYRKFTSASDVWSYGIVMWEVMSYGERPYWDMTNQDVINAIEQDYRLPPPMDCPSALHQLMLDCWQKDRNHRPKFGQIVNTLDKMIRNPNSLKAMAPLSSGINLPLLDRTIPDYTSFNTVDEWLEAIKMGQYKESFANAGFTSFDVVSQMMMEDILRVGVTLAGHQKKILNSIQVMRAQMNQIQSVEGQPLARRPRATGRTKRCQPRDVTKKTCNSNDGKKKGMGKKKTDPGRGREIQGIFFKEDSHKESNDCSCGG

NAMPT = NAMPT (Homo sapiens, UniProt P43490)
SgK085 (MYLK3) = molecular target: T3, SgK085 (MYLK3) (Homo sapiens, UniProt Q32MK0)
T3 sequence (Q32MK0 1-819): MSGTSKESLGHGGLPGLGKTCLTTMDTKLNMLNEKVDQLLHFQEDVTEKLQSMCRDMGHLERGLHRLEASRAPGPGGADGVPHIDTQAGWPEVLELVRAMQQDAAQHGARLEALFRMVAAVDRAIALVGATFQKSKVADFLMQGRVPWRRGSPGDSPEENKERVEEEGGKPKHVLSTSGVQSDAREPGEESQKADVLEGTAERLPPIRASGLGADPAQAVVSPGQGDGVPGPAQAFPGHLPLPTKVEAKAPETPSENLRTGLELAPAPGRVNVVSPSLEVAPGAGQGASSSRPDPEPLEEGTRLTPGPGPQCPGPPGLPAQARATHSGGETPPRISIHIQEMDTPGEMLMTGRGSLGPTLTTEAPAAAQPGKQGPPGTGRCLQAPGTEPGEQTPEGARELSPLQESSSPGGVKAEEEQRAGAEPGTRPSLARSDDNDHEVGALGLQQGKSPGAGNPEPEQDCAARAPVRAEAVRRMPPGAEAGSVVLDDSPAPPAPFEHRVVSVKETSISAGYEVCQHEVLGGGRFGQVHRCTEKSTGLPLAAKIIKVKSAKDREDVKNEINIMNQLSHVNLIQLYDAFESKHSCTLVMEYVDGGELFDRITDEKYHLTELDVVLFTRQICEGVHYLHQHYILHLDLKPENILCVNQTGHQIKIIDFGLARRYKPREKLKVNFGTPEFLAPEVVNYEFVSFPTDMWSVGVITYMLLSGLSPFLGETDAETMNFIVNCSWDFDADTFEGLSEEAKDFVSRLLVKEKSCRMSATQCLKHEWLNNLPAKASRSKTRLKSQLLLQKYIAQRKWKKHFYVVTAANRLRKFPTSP

Sequence of NAMPT (P43490 whole entry): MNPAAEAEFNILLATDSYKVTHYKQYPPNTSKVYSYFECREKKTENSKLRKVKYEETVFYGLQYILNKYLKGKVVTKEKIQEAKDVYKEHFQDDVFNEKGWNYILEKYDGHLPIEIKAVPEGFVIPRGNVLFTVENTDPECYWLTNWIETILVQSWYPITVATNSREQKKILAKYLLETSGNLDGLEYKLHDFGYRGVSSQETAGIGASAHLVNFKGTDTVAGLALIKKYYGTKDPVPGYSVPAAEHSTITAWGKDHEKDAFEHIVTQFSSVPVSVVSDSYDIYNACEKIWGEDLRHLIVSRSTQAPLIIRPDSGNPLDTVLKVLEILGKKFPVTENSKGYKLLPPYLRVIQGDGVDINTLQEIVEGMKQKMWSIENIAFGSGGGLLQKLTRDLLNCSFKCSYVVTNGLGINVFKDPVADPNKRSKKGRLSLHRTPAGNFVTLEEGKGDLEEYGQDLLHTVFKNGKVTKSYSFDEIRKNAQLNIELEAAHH
Sequence of EphA2 (P29317 24-976): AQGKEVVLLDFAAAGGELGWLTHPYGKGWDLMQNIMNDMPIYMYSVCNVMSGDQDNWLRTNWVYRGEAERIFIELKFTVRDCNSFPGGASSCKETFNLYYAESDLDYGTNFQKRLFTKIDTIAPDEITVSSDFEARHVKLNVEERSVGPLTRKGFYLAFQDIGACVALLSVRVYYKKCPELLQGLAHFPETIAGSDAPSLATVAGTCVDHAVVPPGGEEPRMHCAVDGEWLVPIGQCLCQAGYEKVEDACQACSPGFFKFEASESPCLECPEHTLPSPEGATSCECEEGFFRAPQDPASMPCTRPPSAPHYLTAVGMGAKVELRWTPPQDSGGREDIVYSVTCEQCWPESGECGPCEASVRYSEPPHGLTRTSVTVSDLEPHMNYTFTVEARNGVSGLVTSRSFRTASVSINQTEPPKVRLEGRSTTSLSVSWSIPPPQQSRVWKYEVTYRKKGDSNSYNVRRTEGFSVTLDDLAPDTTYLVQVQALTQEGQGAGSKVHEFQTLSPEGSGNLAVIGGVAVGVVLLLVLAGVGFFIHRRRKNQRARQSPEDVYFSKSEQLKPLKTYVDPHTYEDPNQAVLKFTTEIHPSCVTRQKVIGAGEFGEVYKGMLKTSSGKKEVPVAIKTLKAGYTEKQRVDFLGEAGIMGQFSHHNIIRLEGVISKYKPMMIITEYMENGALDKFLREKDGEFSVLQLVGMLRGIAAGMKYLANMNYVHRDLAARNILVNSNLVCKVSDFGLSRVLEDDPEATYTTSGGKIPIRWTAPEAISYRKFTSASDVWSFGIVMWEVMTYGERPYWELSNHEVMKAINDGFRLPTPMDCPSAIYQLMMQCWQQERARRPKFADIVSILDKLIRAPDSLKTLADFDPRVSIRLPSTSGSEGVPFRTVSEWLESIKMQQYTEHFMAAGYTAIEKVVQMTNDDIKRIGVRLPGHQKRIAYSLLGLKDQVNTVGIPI

CC(C)n1c(=O)ccc2cnc(Nc3ccc(OCCN)cc3)nc21 [V16742]
rAVERAGE (CTRL/1 INC) (NT5DC1 (IPI00177965); control beads vs first incubation): 0.07
pKi (NT5DC1 (IPI00177965); immobilized VI16742): 4.02
rAVERAGE (2 INC/1 INC) (NT5DC1 (IPI00177965); second vs first incubation): 0.65
pKd (EphA2): 4.24
Percent bound at various 16742 conc (EphA2; EphA2, Experiment 1, 1.87 μM 16742): 3.91%
Percent bound at various 16742 conc (EphA2; EphA2, Experiment 1, 8.74 μM 16742): 13.88%
Percent bound at various 16742 conc (EphA2; EphA2, Experiment 1, 52 μM 16742): 54.66%
Percent bound at various 16742 conc (EphA2; EphA2, Experiment 2, 1.87 μM 16742): 2.12%
Percent bound at various 16742 conc (EphA2; EphA2, Experiment 2, 8.74 μM 16742): 7.66%
Percent bound at various 16742 conc (EphA2; EphA2, Experiment 2, 52 μM 16742): 43.73%
pKd (EphA2; Kd, EphA2, Experiment 1): 4.34
pKd (EphA2; Kd, EphA2, Experiment 2): 4.15

CC(C)n1c(=O)ccc2cnc(Nc3ccc(OCCN)cc3)nc21 [compound 16742]
Percent bound at 1.87 μM 16742 conc (EphB2; EXPERIMENT 1): 4.79%
Percent bound at 8.74 μM 16742 conc (EphB2; EXPERIMENT 1): 17.01%
Percent bound at 52 μM 16742 conc (EphB2; EXPERIMENT 1): 66.97%
pKd (EphB2; EXPERIMENT 1, read-out: Kd): 4.51
Percent bound at 1.87 μM 16742 conc (EphB2; EXPERIMENT 2): 2.86%
Percent bound at 8.74 μM 16742 conc (EphB2; EXPERIMENT 2): 13.05%
Percent bound at 52 μM 16742 conc (EphB2; EXPERIMENT 2): 57.74%
pKd (EphB2; EXPERIMENT 2, read-out: Kd): 4.37
pKd (EphB2; read-out: Kd Avg): 4.44

COc1cc2ncnc(Nc3ccc(F)c(Cl)c3)c2cc1OCCCN1CCOCC1 [gefitinib]
rAVERAGE (10 nM/0 nM Gef.) (NAMPT): 0.71
rAVERAGE (100 nM/0 nM Gef.) (NAMPT): 0.74
rAVERAGE (1000 nM/0 nM Gef.) (NAMPT): 0.73
rAVERAGE (10000 nM/0 nM Gef.) (NAMPT): 0.92
rAVERAGE (10 nM/0 nM Gef.) (SgK085 (MYLK3)): 0.97
rAVERAGE (100 nM/0 nM Gef.) (SgK085 (MYLK3)): 1.01
rAVERAGE (1000 nM/0 nM Gef.) (SgK085 (MYLK3)): 0.98
rAVERAGE (10000 nM/0 nM Gef.) (SgK085 (MYLK3)): 0.53

From patent publication US8959984B2, “Proteome-wide quantification of small molecule binding to cellular target proteins” (priority 2007, dated 2015)
